Data published in patent US8530487B1 (priority 2009, dated 2013).
Where two headings read alike, the source gives them in different places.

Target: human TRPA1 (Homo sapiens, UniProt O75762)
Experiment: cell-based

human TRPA1, sequence (O75762 whole entry): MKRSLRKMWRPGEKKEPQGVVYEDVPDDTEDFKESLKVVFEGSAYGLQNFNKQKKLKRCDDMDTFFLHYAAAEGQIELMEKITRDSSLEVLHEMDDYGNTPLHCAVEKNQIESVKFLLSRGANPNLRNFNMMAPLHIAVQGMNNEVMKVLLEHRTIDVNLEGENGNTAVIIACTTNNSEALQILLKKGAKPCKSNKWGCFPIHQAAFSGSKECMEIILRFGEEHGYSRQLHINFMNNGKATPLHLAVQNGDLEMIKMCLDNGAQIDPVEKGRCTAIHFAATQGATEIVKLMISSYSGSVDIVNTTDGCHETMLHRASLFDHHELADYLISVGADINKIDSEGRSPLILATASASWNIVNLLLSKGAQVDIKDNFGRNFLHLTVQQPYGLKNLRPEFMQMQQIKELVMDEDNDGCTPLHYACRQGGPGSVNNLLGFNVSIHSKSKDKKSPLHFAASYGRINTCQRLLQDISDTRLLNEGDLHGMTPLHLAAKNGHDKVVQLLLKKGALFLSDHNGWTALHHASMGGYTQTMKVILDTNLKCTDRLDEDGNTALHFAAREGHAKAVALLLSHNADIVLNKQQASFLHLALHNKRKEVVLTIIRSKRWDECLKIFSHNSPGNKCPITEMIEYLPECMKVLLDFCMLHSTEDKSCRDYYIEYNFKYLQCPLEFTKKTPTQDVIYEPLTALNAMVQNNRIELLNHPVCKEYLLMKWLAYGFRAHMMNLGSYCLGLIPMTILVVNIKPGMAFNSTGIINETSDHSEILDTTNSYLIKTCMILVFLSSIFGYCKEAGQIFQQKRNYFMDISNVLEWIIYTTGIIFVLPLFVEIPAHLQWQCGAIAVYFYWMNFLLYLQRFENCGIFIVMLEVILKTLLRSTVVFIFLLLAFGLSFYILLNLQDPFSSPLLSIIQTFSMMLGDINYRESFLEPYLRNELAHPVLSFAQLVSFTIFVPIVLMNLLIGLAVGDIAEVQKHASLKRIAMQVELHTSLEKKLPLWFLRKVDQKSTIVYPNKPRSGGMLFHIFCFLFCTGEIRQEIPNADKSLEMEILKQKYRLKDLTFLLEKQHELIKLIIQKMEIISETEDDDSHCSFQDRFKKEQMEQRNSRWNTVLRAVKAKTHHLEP

IC50 (read-out: Activity (IC50)) [nM]	Structure (SMILES)	IC50 [nM]
	O=C1C2=C(NC(=S)NC2c2ccccc2O)c2ccccc21 (stereo not shown) [Compound 15]	< 100
	O=C1C2=C(NC(=S)NC2c2cccnc2)c2ccccc21 (stereo not shown) [Compound 33]	500 to 1000
	N#Cc1ccc(C2NC(=S)NC3=C2C(=O)c2ccccc23)cc1 (stereo not shown) [Compound 35]	500 to 1000
	COc1ccccc1C1NC(=S)NC2=C1C(=O)c1ccccc12 (stereo not shown) [Compound 40]	> 1000
< 100	O=C1NC2=C(C(=O)c3c(Cl)cccc32)C(c2cc(O)ccc2Br)N1 (stereo not shown) [Compound 101]	
100 to 500	O=C1NC2=C(C(=O)c3ccccc32)C(c2cc(O)ccc2Br)N1 (stereo not shown) [Compound 102]	
> 1000	O=C1NC2=C(C(=O)c3cc(Cl)ccc32)C(c2cc(O)ccc2Br)N1 (stereo not shown) [Compound 103]	
> 1000	O=C1NC2=C(C(=O)c3c(O)cccc32)C(c2cc(O)ccc2Br)N1 (stereo not shown) [Compound 104]	
> 1000	O=C1NC2=C(C(=O)c3cc(O)ccc32)C(c2cc(O)ccc2Br)N1 (stereo not shown) [Compound 105]	
> 1000	O=C1NC2=C(C(=O)c3ccc(O)cc32)C(c2cc(O)ccc2Br)N1 (stereo not shown) [Compound 106]	
500 to 1000	Cc1ccc2c(c1)C(=O)C1=C2NC(=O)NC1c1cc(O)ccc1Br (stereo not shown) [Compound 107]	
	O=C1C2=C(NC(=S)NC2c2ccccc2)c2ccccc21 (stereo not shown) [Compound 201]	< 100
	O=C1C2=C(NC(=S)NC2c2ccccc2)c2ccc(O)cc21 (stereo not shown) [Compound 203]	> 1000
< 100	CN1C(=S)NC(c2ccccc2)C2=C1c1ccccc1C2=O (stereo not shown) [Compound 302]	
> 1000	CN1C(=S)NC2=C(C(=O)c3ccccc32)C1c1ccccc1 (stereo not shown) [Compound 303]	
> 1000	CN1C(=S)N(C)C(c2ccccc2)C2=C1c1ccccc1C2=O (stereo not shown) [Compound 304]	
< 100	C=CCOc1cccc(C2NC(=S)NC3=C2C(=O)c2ccccc23)c1 (stereo not shown) [Compound 305]	
< 100	C=CCOc1cccc(C2NC(=S)N(C)C3=C2C(=O)c2ccccc23)c1 (stereo not shown) [Compound 306]	
< 100	N#Cc1cccc(C2NC(=S)NC3=C2C(=O)c2ccccc23)c1 (stereo not shown) [Compound 307]	
< 100	CN1C(=S)NC(c2cccc(C#N)c2)C2=C1c1ccccc1C2=O (stereo not shown) [Compound 308]	
> 1000	CN1C(=S)NC2=C(C(=O)c3ccccc32)C1c1cccc(C#N)c1 (stereo not shown) [Compound 309]	
< 100	CCOc1cccc(C2NC(=S)NC3=C2C(=O)c2ccccc23)c1 (stereo not shown) [Compound 310]	
< 100	CCOc1cccc(C2NC(=S)N(C)C3=C2C(=O)c2ccccc23)c1 (stereo not shown) [Compound 311]	

IC50 (read-out: Activity (IC50)) [nM]	Structure (SMILES)	IC50 [nM]
> 1000	CN1C(=S)NC(c2ccccc2)C2=C1c1cccc(O)c1C2=O (stereo not shown) [Compound 313]	
< 100	C=CCOc1cccc(C2NC(=O)NC3=C2C(=O)c2ccccc23)c1F (stereo not shown) [Compound 401]	
< 100	C=CCC(F)c1cccc(C2NC(=O)NC3=C2C(=O)c2ccccc23)c1 (stereo not shown) [Compound 402]	
< 100	C=CCOc1cc(F)cc(C2NC(=O)NC3=C2C(=O)c2ccccc23)c1 (stereo not shown) [Compound 403]	
< 100	CCCOc1cc(F)cc(C2NC(=O)NC3=C2C(=O)c2ccccc23)c1F (stereo not shown) [Compound 404]	
< 100	C=CCOc1cccc(C2NC(=O)NC3=C2C(=O)c2ccccc23)c1 (stereo not shown) [Compound 405]	
< 100	C=CCOc1cc(Cl)cc(C2NC(=O)NC3=C2C(=O)c2ccccc23)c1 (stereo not shown) [Compound 406]	
< 100	CCCOc1cccc(C2NC(=O)NC3=C2C(=O)c2ccccc23)c1 (stereo not shown) [Compound 407]	
< 100	CCCCOc1cccc(C2NC(=O)NC3=C2C(=O)c2ccccc23)c1 (stereo not shown) [Compound 408]	
< 100	CCOc1cccc(C2NC(=O)NC3=C2C(=O)c2ccccc23)c1F (stereo not shown) [Compound 409]	
< 100	C=CCOc1cccc(C2NC(=O)NC3=C2C(=O)c2ccccc23)c1Cl (stereo not shown) [Compound 411]	
100 to 500	CCOc1cccc(C2NC(=O)NC3=C2C(=O)c2ccccc23)c1 (stereo not shown) [Compound 412]	
100 to 500	O=C1NC2=C(C(=O)c3ccccc32)C(c2cccc(OCC(F)(F)F)c2)N1 (stereo not shown) [Compound 413]	
100 to 500	O=C1NC2=C(C(=O)c3ccccc32)C(c2cccc(OC(F)F)c2)N1 (stereo not shown) [Compound 414]	
100 to 500	C=CCOc1ccc(Cl)c(C2NC(=O)NC3=C2C(=O)c2ccccc23)c1 (stereo not shown) [Compound 415]	
100 to 500	C=CCOc1ccc(F)c(C2NC(=O)NC3=C2C(=O)c2ccccc23)c1 (stereo not shown) [Compound 417]	
100 to 500	O=C1NC2=C(C(=O)c3ccccc32)C(c2cccc(OCC3CC3)c2Cl)N1 (stereo not shown) [Compound 419]	
100 to 500	CCOc1ccc(F)c(C2NC(=O)NC3=C2C(=O)c2ccccc23)c1F (stereo not shown) [Compound 420]	
100 to 500	C=CCOc1cccc(C2NC(=O)NC3=C2C(=O)c2ccccc23)c1C (stereo not shown) [Compound 421]	
100 to 500	O=C1NC2=C(C(=O)c3ccccc32)C(c2cccc(OCC3CC3)c2)N1 (stereo not shown) [Compound 422]	
500 to 1000	CCOc1cccc(C2NC(=O)NC3=C2C(=O)c2ccccc23)c1Cl (stereo not shown) [Compound 423]	
500 to 1000	O=C1NC2=C(C(=O)c3ccccc32)C(c2ccccc2Cl)N1 (stereo not shown) [Compound 426]	
500 to 1000	CCCCc1cccc(C2NC(=O)NC3=C2C(=O)c2ccccc23)c1 (stereo not shown) [Compound 427]	

IC50 (read-out: Activity (IC50)) [nM]	Structure (SMILES)	IC50 [nM]
> 1000	COc1cccc(C2NC(=O)NC3=C2C(=O)c2ccccc23)c1Cl (stereo not shown) [Compound 428]	
> 1000	COc1ccc(Cl)c(C2NC(=O)NC3=C2C(=O)c2ccccc23)c1 (stereo not shown) [Compound 429]	
> 1000	N#Cc1cccc(C2NC(=O)NC3=C2C(=O)c2ccccc23)c1 (stereo not shown) [Compound 430]	
> 1000	O=C1NC2=C(C(=O)c3ccccc32)C(c2cccc(Cl)c2)N1 (stereo not shown) [Compound 431]	
> 1000	COc1ccc(F)c(C2NC(=O)NC3=C2C(=O)c2ccccc23)c1 (stereo not shown) [Compound 432]	
> 1000	COc1ccc(Br)c(C2NC(=O)NC3=C2C(=O)c2ccccc23)c1 (stereo not shown) [Compound 433]	
> 1000	O=C1NC2=C(C(=O)c3ccccc32)C(c2ccccc2O)N1 (stereo not shown) [Compound 435]	
> 1000	O=C1NC2=C(C(=O)c3ccccc32)C(c2cccc(O)c2)N1 (stereo not shown) [Compound 436]	
> 1000	CC(C)Oc1cccc(C2NC(=O)NC3=C2C(=O)c2ccccc23)c1 (stereo not shown) [Compound 437]	
> 1000	COc1cccc(C2NC(=O)NC3=C2C(=O)c2ccccc23)c1OC (stereo not shown) [Compound 438]	
> 1000	O=C1NC2=C(C(=O)c3ccccc32)C(c2cccc3c2OCO3)N1 (stereo not shown) [Compound 439]	
> 1000	O=C1NC2=C(C(=O)c3ccccc32)C(c2cccc3c2OC(F)(F)O3)N1 (stereo not shown) [Compound 440]	
> 1000	COc1ccc(OC)c(C2NC(=O)NC3=C2C(=O)c2ccccc23)c1 (stereo not shown) [Compound 441]	
> 1000	O=C1NC2=C(C(=O)c3ccccc32)C(c2ccc(Cl)cc2)N1 (stereo not shown) [Compound 442]	
> 1000	CCN(C(C)=O)c1cccc(C2NC(=O)NC3=C2C(=O)c2ccccc23)c1 (stereo not shown) [Compound 443]	
> 1000	Nc1cccc(C2NC(=O)NC3=C2C(=O)c2ccccc23)c1 (stereo not shown) [Compound 444]	
> 1000	CN(C)c1cccc(C2NC(=O)NC3=C2C(=O)c2ccccc23)c1 (stereo not shown) [Compound 445]	
> 1000	O=C1NC2=C(C(=O)c3ccccc32)C(c2cccc(Cl)c2Cl)N1 (stereo not shown) [Compound 446]	
> 1000	O=C1NC2=C(C(=O)c3ccccc32)C(c2ccccc2F)N1 (stereo not shown) [Compound 447]	
> 1000	O=C1NC2=C(C(=O)c3ccccc32)C(c2cc(C(F)(F)F)ccc2Cl)N1 (stereo not shown) [Compound 448]	
> 1000	O=C1NC2=C(C(=O)c3ccccc32)C(c2c(Cl)cccc2Cl)N1 (stereo not shown) [Compound 449]	
> 1000	CC(F)(F)Oc1cccc(C2NC(=O)NC3=C2C(=O)c2ccccc23)c1 (stereo not shown) [Compound 450]	
> 1000	O=C1NC2=C(C(=O)c3ccccc32)C(c2cccc(OC(F)(F)C(F)F)c2)N1 (stereo not shown) [Compound 451]	

IC50 (read-out: Activity (IC50)) [nM]	Structure (SMILES)	IC50 [nM]
> 1000	O=C1NC2=C(C(=O)c3ccccc32)C(c2cccc(C(F)(F)F)c2)N1 (stereo not shown) [Compound 452]	
> 1000	COCc1cccc(C2NC(=O)NC3=C2C(=O)c2ccccc23)c1 (stereo not shown) [Compound 453]	
> 1000	C=CCOc1cccc(C2NC(=O)NC3=C2C(=O)c2ccccc23)c1C(F)(F)F (stereo not shown) [Compound 454]	
> 1000	C=CCOc1cccc(C2NC(=O)NC3=C2C(=O)c2ccccc23)c1OC (stereo not shown) [Compound 455]	
> 1000	C=CCOc1cccc(C2NC(=O)NC3=C2C(=O)c2ccccc23)c1O (stereo not shown) [Compound 456]	
> 1000	O=C1NC2=C(C(=O)c3ccccc32)C(c2ccc3c(c2)OCO3)N1 (stereo not shown) [Compound 457]	
> 1000	COc1cc(OC)cc(C2NC(=O)NC3=C2C(=O)c2ccccc23)c1 (stereo not shown) [Compound 458]	
> 1000	O=C1NC2=C(C(=O)c3ccccc32)C(c2cccc(OC(=O)C3CC3)c2)N1 (stereo not shown) [Compound 459]	
> 1000	CCCCCOc1cccc(C2NC(=O)NC3=C2C(=O)c2ccccc23)c1 (stereo not shown) [Compound 460]	
> 1000	O=C1NC2=C(C(=O)c3ccccc32)C(c2cccc(OCC3CCC3)c2)N1 (stereo not shown) [Compound 461]	
100 to 500	COCCOc1cccc(C2NC(=O)NC3=C2C(=O)c2ccccc23)c1 (stereo not shown) [Compound 462]	
> 1000	O=C1NC2=C(C(=O)c3ccccc32)C(c2cccnc2)N1 (stereo not shown) [Compound 501]	
> 1000	O=C1NC2=C(C(=O)c3ccccc32)C(c2cccs2)N1 (stereo not shown) [Compound 502]	
> 1000	CCOc1cncc(C2NC(=O)NC3=C2C(=O)c2ccccc23)c1 (stereo not shown) [Compound 503]	
500 to 1000	CCOc1cccc(C2NC(=O)NC3=C2C(=O)c2ccccc23)n1 (stereo not shown) [Compound 504]	
> 1000	O=C1NC2=C(C(=O)c3ccccc32)C(c2cccc3[nH]c(=O)oc23)N1 (stereo not shown) [Compound 505]	
> 1000	CCn1c(=O)oc2c(C3NC(=O)NC4=C3C(=O)c3ccccc34)cccc21 (stereo not shown) [Compound 506]	
< 100	CCOc1cccc(C2NC(=O)N(CC#N)C3=C2C(=O)c2ccccc23)c1 (stereo not shown) [Compound 601]	
100 to 500	CCOc1cccc(C2NC(=O)NC3=C2C(=O)c2ccccc23)c1 (stereo not shown) [Compound 602]	
< 100	CCOc1cccc(C2NC(=O)N(C)C3=C2C(=O)c2ccccc23)c1 (stereo not shown) [Compound 603]	
< 100	CCOc1cccc(C2NC(=O)N(CC)C3=C2C(=O)c2ccccc23)c1 (stereo not shown) [Compound 604]	

Structure (SMILES)	IC50 (read-out: Activity (IC50)) [nM]	IC50 [nM]
O=C1C2=C(NC(=S)NC2c2ccccc2)c2ccccc21 (stereo not shown) [Compound 301]	< 100	
